Results from patent publication US20110160252A1, “PHARMACEUTICAL COMPOSITIONS FOR TREATMENT OR PREVENTION OF HBV INFECTION” (priority 2008, published 2011).
Like-named read-outs stand apart in the source and are kept apart here.

Experiments:
[1] = system: HBV (genotype C_AT; wild-type strain); experiment: Virus titer in chimeric mice having human liver infected with genotype C_AT HBV (Example 4); type: in vivo, Hepatitis B virus; details: second week, formula (III) 5 mg/kg iv daily, PEG-IFN 30 μg/kg sc, ETV 0.02 mg/kg oral daily (FIG. 4)
From the text: (§1) Next, serum HBV was purified by the same method as described in Example 1, and HBV was quantified by measuring HBV-DNA using real-time PCR method. The sequences of primers HBSF2: 5′-CTTCATCCTGCTGCTATGCCT-3′[nt 406-426] (SEQ ID NO: 4) and HBSR2: 5′-AAAGCCCAGGATGATGGGAT-3′[nt 646-627] (SEQ ID NO: 5), and the sequence of TaqMan probe HBSP2 (nt 461-488) (5′-ATGTTGCCCGTTTGTCCTCTAATTCCA-3′ (SEQ ID NO: 6)) were the same as those described in the reference (Abe A, Inoue K, Tanaka T, Kato J, Kajiyama N, Kawaguchi R, Tanaka S, et al. Quantitation of hepatitis B virus genomic DNA by real-time detection PCR. J Clin Microbiol (1999) 37: 2899-2903).
(§2) The same test as described in Example 3 was carried out using chimeric mice (purchased from PhoenixBio Co., Ltd.) having human liver infected with HBV (genotype C_AT; wild-type strain). The compound represented by formula (III) was administered at 5 mg/kg (intravenous injection every day), while PEG-IFN was administered at 30 μg/kg (subcutaneous injection). Entecavir (ETV) was administered at 0.02 mg/kg (oral administration every day).

[2] = system: genotype C HBV (L180M+S202G+M204V; ETV-resistant strain); experiment: Virus titer in chimeric mice having human liver infected with ETV-resistant genotype C HBV (Example 5); type: in vivo, Hepatitis B virus; details: formula (III) 5 mg/kg iv daily, PEG-IFN 30 μg/kg sc, ETV 0.02 mg/kg oral daily (FIG. 5)
From the text: as §1
as §2, with “with genotype C” for “with”, “(L180M+S202G+M204V; ETV-resistant” for “(genotype C_AT; wild-type”

[3] = system: HBV (genotype C_AT; wild-type strain); experiment: Anti-HBV effect on HBV-infected Huh-7 cells, HBV-DNA in supernatant by real-time PCR (wild-type strain); type: cell-based; details: Hepatitis B virus
Procedure: The present inventors assessed the anti-HBV effect of the compound represented by formula (III) on Huh-7 cells infected with HBV (genotype C_AT; wild-type strain).
(§3) On the day before HBV infection, about 100,000 Huh-7 cells were plated in 12-well plates (FALCON, 353043) using culture medium DMEM (SIGMA, D6429).
On the day of infection, 50 μl of a homogenous mixture of 0.5 μg of HBV-DNA (described in “Sugiyama M, et al. HEPATOLOGY, Vol. 44: 915-924, 2006”), 1.5 μl of FUGENE6 (Roche Diagnostics; 11 814 443 001), 5 μl of SEAP, and 43 μl of OPTIMEM (Invitrogen; 31985) was added to the Huh-7 cells in each well. Then, the compound represented by formula (III) was added at a final concentration of 0, 3, 10, or 30 μM.
The cells were cultured at 37° C. under 5% CO2 for three days, and then culture supernatant was collected from each well. The supernatant was treated with deoxyribonuclease (DNase) to remove free DNA. […]
(§4) HBV was quantified by measuring HBV-DNA using real-time PCR (Device used: Applied Biosystems, 4318157). […]
(§5) (SEQ ID NO: 2); and HBVSP2 has the sequence of: FAM-[…]-TAMRA (SEQ ID NO: 3)). […] HBV-DNA copy numbers were determined from the obtained fluorescent signals.

[4] = system: HBV strain A, L180M+M204V (highly Lamivudine-resistant strain); experiment: HBV propagation suppression in Huh-7 cells, strain A (highly Lamivudine-resistant); type: cell-based; details: Hepatitis B virus, Huh-7, read-out: 50% propagation suppression
Procedure: (§6) FIG. 1B is a graph showing the effect of an agent on Huh-7 cells infected with various HBV strains. • A: highly Lamivudine-resistant strain, 50% propagation suppression=3.4 μM; • B: Entecavir-resistant strain, 50% propagation suppression=3.7 μM; • C: Lamivudine-resistant strain, 50% propagation suppression=3.6 μM; • Wild: wild-type strain, 50% propagation suppression=3.2
as §3
(§7) On the day of infection, 50 μl of a homogenous mixture of 0.5 μg of HBV-DNA (described in “Sugiyama M, et al. HEPATOLOGY, Vol. 44: 915-924, 2006”), 1.5 μl of FUGENE6 (Roche Diagnostics; 11 814 443 001), 5 μl of SEAP, and 43 μl of OPTIMEM (Invitrogen; 31985) was added to the Huh-7 cells in each well. […]
as §4, §5
(§8) Furthermore, the effect of suppressing HBV propagation was assessed by the same method using Lamivudine- and Entecavir-resistant strains (A, L180M+M204V; B, L180M+M204V+T184L; C, M204V (YVDD)) as well as wild-type HBV strain (Wild).

[5] = system: HBV strain B, L180M+M204V+T184L (Entecavir-resistant strain); experiment: HBV propagation suppression in Huh-7 cells, strain B (Entecavir-resistant); type: cell-based; details: Hepatitis B virus, Huh-7, read-out: 50% propagation suppression
Procedure: as §6, §3, §7, §4, §5, §8

[6] = system: HBV strain C, M204V (YVDD) (Lamivudine-resistant strain); experiment: HBV propagation suppression in Huh-7 cells, strain C (Lamivudine-resistant); type: cell-based; details: Hepatitis B virus, Huh-7, read-out: 50% propagation suppression
Procedure: as §6, §3, §7, §4, §5, §8

Row | Compound | mean decrease of virus titer [1] [Log] | viral decrease [2] [Log] | IC50 ([3]; 72 h, Huh-7 cells, genotype C_AT wild-type HBV, three days culture, HBV-DNA in supernatant (FIG. 1A), read-out: 50%-inhibition concentration (IC50)) [µM] | IC50 ([3]; Huh-7, read-out: 50% propagation suppression) [µM] | IC50 [4] [µM] | IC50 [5] [µM] | IC50 [6] [µM]
1 | C=C1[C@H](CO)[C@@H](O)C[C@@H]1n1cnc2c(=O)[nH]c(N)nc21 [ETV, Entecavir] | 1.4 | 0.3 |  |  |  |  | 
2 | CC#CCOc1ccc(C[C@H](NC(=O)[C@@H](/C=C/CCCCCCC(=O)CCCCCCC)[C@@](O)(CC(=O)O)C(=O)O)C(=O)O)cc1 [compound represented by formula (III)] |  |  | ~3 | 3.2 | 3.4 | 3.7 | 3.6
